# Data reported in patent US20200247761A1, “SULFONAMIDE OR AMIDE COMPOUNDS, COMPOSITIONS AND METHODS FOR THE PROPHYLAXIS AND/OR TREATMENT OF AUTOIMMUNE, INFLAMMATION OR INFECTION RELATED DISORDERS” (TAIWANJ PHARMACEUTICALS CO., LTD, priority 2017, published 2020).
# Read-outs that look alike come from different tables or passages of the source.
# Assays:
# Assay type in all cases: cell-based
# [1] = target: T1, Toll-like receptor 4 (TLR4) (Homo sapiens, UniProt O00206); assay: TLR4 activity: NF-κB-inducible SEAP reporter in LPS-stimulated TLR4-expressing HEK293 cells; conditions: for inhibition at 10 µM: Test Con. 10 μM; for activity towards TLR-4 (in words): summary of Table 1 (10, 20 or 100 μM)
# T1 construct: expressed in transfected cells; host or cells: HEK293 cells engineered to express TLR4
# Method: Stimulation of the Toll-like receptor 4 (TLR4) was determined by assessing activation of the transcription factor NF-κB in HEK293 cells that were engineered to express TLR4. Assessment of TLR4 stimulation was based on the use of an NE-κB-inducible secreted alkaline phosphatase (SEAP) reporter system in which the SEAP reporter was under the control of a promoter inducible by NF-κB. Thus, the degree of activation of TLR4 can be indirectly quantified spectrophotometrically by measuring the amount of the SEAP reporter that is produced.
# The TLR4-expressing cells were plated in HEK-Blue Detection (Invivogen, San Diego, Calif.) medium in a 96-well plate (25,000-50,000 cells/well). The cells were stimulated with lipopolysaccharides (LPS) alone or in combination with the compound of Example 1. Cell culture without LPS and the compound of Example 1 was defined as baseline control. To test whether the compound of Example 1 could block that activation of the TLR4, the cells were treated with the designated compound (10, 20 or 100 μM) and LPS (final conc. 10 ng/ml/well). After an incubation period (16-24 hours) at 37° C. in a CO2 incubator, the signals of individual samples in 96-well plates were detected at O.D.650 nm with a Molecular Devices SpectraMax i3 Imaging Cytometer. The TLR4 activity was expressed in percentage of LPS alone-stimulated cells minus baseline control.
# HEK293 cells = assay: Cell viability (MTT) of the TLR4-expressing HEK293 cells; conditions: percentage of viable LPS-stimulated cells
# Method: (§1) RAW264.7 cells (1.6×10^5 cells/well) or HEK 293 cells (2.5-5.0×10^4 cells/well) were seeded in 96-well plate overnight and treated with different compounds for 16-24 hours. Cells' growth were determined by MTT-based colorimetric assays. Viability of the test cells treated with vehicle (0.5% DMSO) only was defined as 100% viable. Survival of cells after treatment with DETDs was calculated using the following formula: viable cell number (%)=OD570 (treated cell culture)/OD570 (vehicle control)×100.
# (§2) The cell viability assay was performed by the MTT method. Cells were incubated with 45 μl of 5 mg/ml MTT for 1 hour at 37° C., and 150 μl of DMSO was added at the end of culture to dissolve the crystals. The signals of individual samples in 96-well plates were detected at O.D.570 nm with a Molecular Devices SpectraMax i3 Imaging Cytometer. Cell viability was expressed in percentage of viable LPS-stimulated cells.
# [2] = test system: mTNF-α secretion from LPS-stimulated RAW264.7 monocytes; assay: LPS induced mTNF-α release from RAW264.7 cells (ELISA); conditions: Mus musculus
# Method: To confirm whether the inhibitory effect of the selected compounds of example 2.1 (i.e., Compounds 12, 15, 19, 20, 22, 24, 28, 30, 32, 34, 36, 38, 40, 42, 44, 45, 49, 50, 52 and 70) translates to anti-inflammation, they were further tested to see if any of them may suppress mTNF-α secretion from lipopolysaccharide (LPS)-stimulated RAW264.7 monocytes.
# To this purpose, RAW264.7 cells were seeded at 1.6×10^5 cells/well into 96-well culture plates. Test compounds (i.e., Compounds 12, 15, 19, 20, 22, 24, 28, 30, 32, 34, 36, 38, 40, 42, 44, 45, 49, 50, 52 and 70, respectively at 10 μM) were added into the culture plates in triplicate and co-cultured at 37° C. in 5% CO2 for 30 minutes. LPS (final conc. 10 ng/ml/well) was then added into the culture plates and the cells were incubated for another 4 hours. At the end of culture, the cultured media were harvested for mTNF-α quantification by ELISA with commercial assay kits (R&D Systems, Minneapolis, Minn.) following the manufacturer's protocol. Signals of the individual samples in 96-well plates were detected at O.D.450 nm/570 nm with a Molecular Devices SpectraMax i3 Imaging Cytometer. The mTNF-α activity was expressed in percentage of viable LPS-stimulated cells without test compound treatment.
# RAW264.7 cells = assay: Cell viability (MTT) of RAW264.7 cells; conditions: for toxic activity toward RAW264.7 cells (in words): Table 2, 10 μM; for Cell Viability (%) mean: Test Con. 10 μM, MTT, RAW264.7 cells, percentage of viable LPS-stimulated cells
# Method: as §1
# as §2, with “method, in which cells” for “method. Cells”
# [3] = LPS 10 ng/ml, 16-24 hours, HEK293 cells expressing TLR4, read-out: TLR-4 inhibition (%) mean
# [4] = RAW264.7, Table 2, 10 μM, read-out: inhibition of LPS induced mTNF-α release from RAW264.7 cells
# [5] = Test Con. 10 μM, LPS 10 ng/ml, 4 hours, RAW264.7 cells, read-out: mTNF-α inhibition (%) mean
# T1 sequence (O00206 24-839, species assumed): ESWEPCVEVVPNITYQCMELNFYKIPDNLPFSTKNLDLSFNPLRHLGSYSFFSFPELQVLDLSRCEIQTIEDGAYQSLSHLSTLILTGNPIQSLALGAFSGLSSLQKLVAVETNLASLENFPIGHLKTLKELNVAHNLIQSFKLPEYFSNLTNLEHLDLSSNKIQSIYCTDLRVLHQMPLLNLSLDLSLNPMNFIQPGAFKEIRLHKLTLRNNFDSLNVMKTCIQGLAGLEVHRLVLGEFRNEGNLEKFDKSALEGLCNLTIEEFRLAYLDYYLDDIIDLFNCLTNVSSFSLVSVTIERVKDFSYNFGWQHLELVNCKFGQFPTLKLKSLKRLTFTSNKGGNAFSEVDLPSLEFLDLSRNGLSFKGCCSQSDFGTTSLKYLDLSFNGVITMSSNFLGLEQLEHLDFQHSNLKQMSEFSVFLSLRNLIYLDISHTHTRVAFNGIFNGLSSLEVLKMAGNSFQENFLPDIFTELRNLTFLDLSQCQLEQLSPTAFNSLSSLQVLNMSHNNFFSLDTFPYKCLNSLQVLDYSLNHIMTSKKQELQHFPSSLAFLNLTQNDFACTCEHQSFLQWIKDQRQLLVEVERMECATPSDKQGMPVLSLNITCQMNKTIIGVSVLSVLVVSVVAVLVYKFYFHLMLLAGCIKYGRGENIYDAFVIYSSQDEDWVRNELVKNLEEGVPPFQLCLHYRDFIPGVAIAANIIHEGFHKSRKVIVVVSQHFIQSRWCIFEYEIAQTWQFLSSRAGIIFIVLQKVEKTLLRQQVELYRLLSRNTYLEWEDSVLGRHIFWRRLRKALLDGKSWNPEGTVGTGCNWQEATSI
# T1 sequence (Q9Y6Y9 17-160 partner limits assumed, species assumed): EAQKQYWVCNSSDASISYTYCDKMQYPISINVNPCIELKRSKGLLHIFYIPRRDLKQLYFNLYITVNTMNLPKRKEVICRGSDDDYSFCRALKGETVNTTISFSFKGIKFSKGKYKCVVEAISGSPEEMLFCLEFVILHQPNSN
Structure (SMILES),"inhibition at 10 µM [1, 3] [%]",activity towards TLR-4 (in words) [1],Cell Viability (%) mean (HEK293 cells; Test Con. 10 μM) [%],"inhibition at 10 µM [2, 4] [%]","inhibition at 10 µM [2, 5] [%]",toxic activity toward RAW264.7 cells (in words) (RAW264.7 cells),Cell Viability (%) mean (RAW264.7 cells) [%],"inhibition at 100 µM ([1]; Test Con. 100 μM, LPS 10 ng/ml, 16-24 hours, HEK293 cells expressing TLR4, read-out: TLR-4 inhibition (%) mean) [%]","inhibition at 20 µM ([1]; Test Con. 20 μM, LPS 10 ng/ml, 16-24 hours, HEK293 cells expressing TLR4, read-out: TLR-4 inhibition (%) mean) [%]",Cell Viability (%) mean (HEK293 cells; Test Con. 20 μM) [%]
C=CC(=O)N(c1ccc(F)cc1Cl)S(=O)(=O)Cc1ccccc1 [Compound 36],67.3,moderate inhibitory activity,107.0,~13,13,negligible to no toxic activity,102.8,–,–,–
C=C(C)C(=O)N(c1ccc(F)cc1Cl)S(=O)(=O)c1ccccc1 [Compound 20],60.1,moderate inhibitory activity,90.4,~70,70.9,negligible to no toxic activity,100.0,–,–,–
C=CC(=O)N(c1ccc(F)cc1Cl)S(=O)(=O)c1ccccc1[N+](=O)[O-] [Compound 22],63,moderate inhibitory activity,109.9,~40,45.7,negligible to no toxic activity,96.4,–,–,–
C=CC(=O)N(c1ccc(F)cc1Cl)S(=O)(=O)c1ccccc1OC(F)(F)F [Compound 26],10.7,mild or negligible activity,86.8,–,–,–,–,–,–,–
C=CC(=O)N1CCN(CC(=O)Nc2ccc(F)cc2)CC1 [Compound 6],–,mild or negligible activity,–,–,–,–,–,17.8,–,–
C=C(C)C(=O)Nc1ccccc1S(=O)(=O)Nc1ccc(F)cc1Cl [Compound 45],65.6,moderate inhibitory activity,100.7,~40,41.1,negligible to no toxic activity,98.3,–,–,–
C=CC(=O)N1CCCc2cccc(S(=O)(=O)Nc3ccc(F)cc3F)c21 [Compound 15],100,strong antagonist,84.1,85 to 100,94.7,–,52.4,–,–,–
C=CC(=O)N(c1ccc(F)cc1Cl)S(=O)(=O)N1CCCCC1C(=O)OC (centres unmarked) [Compound 52],100,strong antagonist,92.2,85 to 100,97.2,negligible to no toxic activity,88.1,–,–,–
C=CC(=O)N(c1ccc(F)cc1Cl)S(=O)(=O)N1CCC[C@H]1C(=O)OC [Compound 49],76.2,moderate inhibitory activity,108.5,85 to 100,98.8,negligible to no toxic activity,81.6,–,–,–
O=S(=O)(Nc1ccc(F)cc1Cl)c1cccc2c1N(S(=O)(=O)CCl)CCC2 [Compound 16],–,mild or negligible activity,–,–,–,–,–,–,18,96.5
